Tested on: Water Avoidance Stress-Induced Hyperdefecation Model
Assay: Inhibition test of the number of stools using water avoidance stress-induced hyperdefecation model
Format: in vivo, rat
Description: Each of rats was freely allowed to have an enteral nutritional supplement, ELENTAL (0.25 g/mL; manufactured by Ajinomoto Co., Inc.) contained in a water-feeding bottle for seven days before a treatment with TNBS (2,4,6-trinitrobenzene sulfonic acid). The rats were fasted from the day before the TNBS administration day, and drinking water instead of ELENTAL was contained in the water-feeding bottle. On the day of the TNBS treatment (the rat: 8-week-old), 10 mL of physiological saline was intrarectally injected to the rat under anesthetization with ethyl ether to wash the enteral content. After the washing, the rat was allowed to stand longer than 2 hours, and 1 mL of 5 or 30 mg/head of TNBS in 40% ethanol/physiological saline (vehicle) was applied (injected) through the rectal injection under anesthetization with pentobarbital. Further, a silicone plug was inserted to the anus of the rat to stay the TNBS solution in the injection site, and the surrounding of the anus was fixed with an adhesive cloth elastic bandage (Elastopore). After about four hours of the TNBS treatment, the Elastopore and the silicone plug were removed from the rat, and 10 mL of physiological saline was intrarectally injected to the rat to discharge the enteral content. The animal was conventionally bled for four weeks from the TNBS treatment to recover from colitis. Moreover, to each of positive control rats, alosetron was orally administered singly before one hour of the stress loading.
Moreover, to each of positive control rats, alosetron (10 mg/kg) was orally administered singly before one hour of the water-stress loading. On the day of the measurement of the number of stools (the rat: 12-week-old), the animal was allowed to stand on a block (10 cm×5 cm×10 cm) installed in a water bath (about 50×30×40 cm, water depth: 5 cm) for one hour. However, each of animals on which no water environment stress was loaded (normal group) was allowed to stand in a waterless bath. The total number of stools excreted for the one hour after the animal was allowed to stand in the water bath was measured as the number of stools. Moreover, the nature of stools were compared and examined.

Compound	number of stools excreted for one hour compared with the control group (alosetron 10 mg/kg orally, single dose one hour before water-stress loading, p<0.001, t-test)	number of stools excreted for one hour compared with the control (rifaximin 100 mg/kg orally for 9 days, rats recovered from TNBS colitis, p<0.001, Dunnett test)	dose dependence of the defecation inhibition effect (rifaximin 6.25, 25 and 100 mg/kg orally for 9 days)	nature of stool (rifaximin-administered group, orally for 9 days)	motility of the intestinal tract (rifaximin-administered group, concluded from number and nature of stools)
Cc1[nH]cnc1CN1CCc2c(c3ccccc3n2C)C1=O [alosetron]	showed a significantly effect compared with the control group				
CO[C@H]1/C=C/O[C@@]2(C)Oc3c(C)c(O)c4c(O)c(c5c(nc6cc(C)ccn65)c4c3C2=O)NC(=O)/C(C)=C\C=C\[C@H](C)[C@H](O)[C@@H](C)[C@@H](O)[C@@H](C)[C@H](OC(C)=O)[C@@H]1C [rifaximin]		decreased the number of stools compared with the control	depended on the dose	normalization in the nature of stool was observed	the motility of the intestinal tract was improved

— US8980872B2, “Agent for preventing and/or treating functional gastrointestinal disorder” (Aska Pharmaceutical Co., Ltd., priority 2008, dated 2015)
